In patent EP0069659A1, “Medicine containing the reaction product of a carboxylic acid and a basic amino acid” (CHANY, Charles, priority 1981, dated 1983):

What was measured:
[1] = test system: mutant du sarcome de Crocker 180 TG; experiment: Antitumour activity in mice grafted intraperitoneally with ascitic sarcoma (nine experiments, figures 1 to 9); assay type: in vivo, souris Swiss
Description: La tumeur utilisée dans les expériences qui suivent est un mutant du sarcome de Crocker 180 TG qui résiste au traitement par les dérivés puriques.
Les animaux d'expériences sont toujours des souris Swiss de l'élevage susmentionné.
On leur inocule le sarcome par voie intrapéritonéale en utilisant une suspension de 10^6 cellules/0,5 ml.. La quantité inoculée est de 0,5 ml.
Les expériences ont été réalisées en utilisant : • - le butyrate d'arginine ou de lysine, • - l'interféron, • - le corynébacterium parvum (ou CP) de souche Mérieux.
Le butyrate d'arginine a été mis en oeuvre sous la forme et en quantité analogue à ce qui est indiqué plus haut pour l'activité antivirale.
Le CP est administré dans les expériences qui suivent sous la forme d'une dose unique appliquée au moment de la greffe ou trois jours après et se présentant sous la forme d'ampoules de 2 ml comprenant 4 mg en poids sec de germes tués par le formol et la chaleur; on injecte 0,1 ml de cette substance à la souris par voie intrapéritonéale.
On a procédé à neuf expériences indépendantes portant chacune sur plusieurs groupes de 15 animaux.
Dans la première de ces expériences (groupe témoin), on a greffé aux animaux la tumeur seule.
Dans les deuxième et troisième expériences, le butyrate d'amino-acide basique a été appliqué par voie intrapéritonéale à raison de 0,5 ml d'une solution 50 fois millimolaire par souris (c'est-à-dire à raison de respectivement 0,28 mg et 0,24 mg par g de souris), trois fois par semaine (à 48 heures d'intervalle) pendant trois semaines.
Dans la quatrième expérience, on a appliqué l'interféron à raison de 20.000 à 50.000 U.I. sous un volume de 0,5 ml administré à l'animal trois fois par semaine (à 48 heures d'intervalle) pendant trois semaines.
Dans la cinquième expérience, on a appliqué le CP en une dose unique de 200 microgrammes/0,1 ml par animal, administrée par voie intrapéritonéale en même temps ou trois jours après la greffe cellulaire.
Dans les sixième à neuvième expériences, on a appliqué, suivant le cas, le butyrate d'amino-acide basique, l'interféron et/ou le CP aux mêmes doses, au même rythme et aux mêmes moments que lorsque ces produits étaient appliqués seuls dans les expériences précédentes.
Ces histogrammes montrent, en fonction du temps (nombre de jours T), le nombre N d'animaux survivants et, parmi ces animaux survivants, le nombre d'animaux portant des tumeurs décelables.
Ainsi, le nombre d'animaux survivants est porté, pour un jour donné, en ordonnée sous la forme d'une colonne figurant le nombre d'animaux et à l'intérieur de laquelle on matérialise par des hachures le nombre d'animaux porteurs de tumeurs.

[2] = test system: virus de l'encéphalomyocardite de la souris (EMC) de la souche Mengo; experiment: Antiviral protection of mice against the lethal effect of 100 DL50 of EMC virus; conditions: for survie lorsqu'on administre aussi de l'interféron: given together with interféron; for survie relevée au moment où la mortalité cesse dans la série d'animaux témoins: propionate d'arginine 0,252 mg/g, hexanoate d'arginine 0,29 mg/g, virus-only controls 5 sur 30
Description: Dans ces expériences, on met en évidence l'activité antivirale contre l'effet léthal de 100 DL50 du virus de l'encéphalomyocardite.
Les animaux de laboratoire utilisés sont des souris du type "Swiss" provenant d'un élevage propre aux Inventeurs.
Le virus employé est celui de l'encéphalomyocar- dite de la souris (EMC) de la souche Mengo cultivée sur des cellules murines L 929.
Le titre des suspensions de virus est estimé par la "méthode des plages" en utilisant toujours des cellules murines L 929. On admet que 5 unités (UFP) formant des plages, correspondent à une dose léthale DL50.
Le virus est inoculé par voie intrapéritonéale.
On réalise également, à titre de comparaison, les expériences suivantes : • - prétraitement des animaux par le butyrate de sodium avant inoculation du virus EMC, • - traitement par le butyrate d'arginine ou de lysine simultanément à l'injection du virus.
Des groupes de souris témoin sont traités par le virus seul et le solvant (milieu isotonique) seul.
et on a administré pour chaque expérience 0,5 ml de ces solutions par souris de 25 g.
L'interféron a été administré à raison de 20.000 à 25.000 unités internationales par souris par voie intrapéritonéale sous un volume de 0,5 ml et l'immunostimulant, à savoir le corynébacterium parvum, souche Mérieux, a été injecté à l'animal par voie intrapéritonéale à raison de 200 µg/0,1 ml/souris.
L'action antivirale a été étudiée dans les mêmes conditions que plus haut.

[3] = 45 animals at start, butyrate de lysine 0,24 mg/g i.p. 3 times a week for 3 weeks

Substance: butyrate de lysine
- animaux restants au bout de 44 jours [1, 3]: 2
- porteurs de tumeur parmi les animaux restants au bout de 44 jours [1, 3]: 1
- animaux porteurs de tumeurs au 10e jour ([1]; butyrate 0,5 ml of 50 mM i.p. 3 times a week for 3 weeks (0,28 or 0,24 mg/g), interféron 20.000 à 50.000 U.I. 3 times a week for 3 weeks, CP single dose 200 microgrammes i.p.): 32 sur 45
- animaux survivants après 100 jours d'observation ([1]; same doses as E4, group sizes 45 to 75 animals, no control survives beyond day 28): un seul
- effet protecteur ([2]; treatment given simultaneously with the injection of the virus): aucun effet protecteur

Substance: propionate d'arginine
- survie lorsqu'on administre aussi de l'interféron [2]: considérablement augmentée
- survie relevée au moment où la mortalité cesse dans la série d'animaux témoins [2]: 18 sur 30

Substance: hexanoate d'arginine
- survie lorsqu'on administre aussi de l'interféron [2]: considérablement augmentée
- survie relevée au moment où la mortalité cesse dans la série d'animaux témoins [2]: 11 sur 30
